Some test systems named below: BT-549 breast; CAKI-1 renal; DU-145 prostate; HT29 colon; MOLT-4 leukemia; NCI-H226 lung; OVCAR-8 ovarian; SF-268 CNS; SF-539 CNS; SW-620 colon.
Experiment in all cases: NCI-60 cell line screen, 48 h

“And” between values parts separate entries of the source, which are not always exact repeats. Equal entries are not always repeated.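 In this assay, cells in 96-well plates receive the compound at five concentrations for 48 hours. Endpoints are linearly interpolated between the surrounding concentrations. GI50 is the concentration that inhibits growth by half. TGI denotes the concentration required for complete inhibition of growth.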

Take `CC[C@]12C=CCN3CC[C@]4(C(=C(C(=O)OC)C1)Nc1cc5c(cc14)[C@@H]1[C@H](O5)[C@@H](O)[C@@]4(CC)CC(C(=O)OC)=C5Nc6ccccc6[C@@]56CCN1[C@@H]46)[C@@H]32`: the GI50 with BT-549 breast was 0.913 µM and 2.49 µM; in the test on CAKI-1 renal it was 0.0819 µM and 0.268 µM; in the test with DU-145 prostate it was 1.59 µM and 1.77 µM; in the test on HT29 colon it was 0.13 µM and 0.186 µM; with MOLT-4 leukemia it was 0.432 µM and 0.338 µM; in the test on NCI-H226 lung, 0.688 µM. Further, the GI50 was 0.648 µM and 0.449 µM with OVCAR-8 ovarian; 1.15 µM and 1.2 µM in the test with SF-268 CNS; 0.15 µM and 0.339 µM in the test with SF-539 CNS; 0.868 µM and 0.495 µM in the test on SW-620 colon. Besides, the TGI in the test with BT-549 breast is 25 µM and > 100 µM; with CAKI-1 renal, 8.09 µM and 37.7 µM; with DU-145 prostate it was 25 µM and 10.7 µM; with MOLT-4 leukemia, 25 µM and > 100 µM; in the test with NCI-H226 lung, 25 µM; with OVCAR-8 ovarian, 25 µM and > 100 µM. In addition, the TGI with SF-268 CNS was 19.7 µM and 54.5 µM; with SF-539 CNS, 3.74 µM and 7.05 µM; in the test on SW-620 colon it was 13.5 µM and 7.85 µM.
`C=C(C(=O)c1ccccc1)C(NC(C)(C)C)c1ccccc1` (centres undefined): the GI50 was 2.13 µM with BT-549 breast; 1.91 µM in the test with CAKI-1 renal; 3.11 µM with DU-145 prostate; 1 µM in the test on HT29 colon; 1.76 µM with MOLT-4 leukemia; 1.63 µM in the test on NCI-H226 lung. The GI50 with OVCAR-8 ovarian was 3.02 µM; with SF-268 CNS, 3.61 µM; in the test with SF-539 CNS, 3.21 µM; with SW-620 colon, 1.14 µM. Further, the TGI was determined as 4.6 µM in the test with BT-549 breast; 7.42 µM in the test on CAKI-1 renal; 13.2 µM in the test with DU-145 prostate; 3.13 µM in the test on HT29 colon; 21.9 µM in the test with MOLT-4 leukemia; 4.56 µM in the test with NCI-H226 lung. In addition, the TGI in the test on OVCAR-8 ovarian came out at 10.8 µM; in the test on SF-268 CNS, 18.6 µM; with SF-539 CNS, 8.36 µM; in the test with SW-620 colon, 3.44 µM.
With `Cc1[nH]c(C(=O)Nc2cccc(OC3CCNCC3)c2)c(Cl)c1Cl`, the GI50 with BT-549 breast was 4.65 µM; with CAKI-1 renal, 1.82 µM; in the test on DU-145 prostate, 1.89 µM; in the test with HT29 colon, 1.92 µM; with MOLT-4 leukemia, 1.94 µM; in the test with NCI-H226 lung it was 2.43 µM. Besides, the GI50 was 2.05 µM in the test with OVCAR-8 ovarian, 1.77 µM in the test with SF-268 CNS, 1.64 µM with SF-539 CNS and 1.88 µM in the test on SW-620 colon. For the same compound, the TGI came out at 18.1 µM in the test on BT-549 breast; 3.39 µM with CAKI-1 renal; 3.52 µM in the test on DU-145 prostate; 4.44 µM in the test on HT29 colon; 4.12 µM in the test with MOLT-4 leukemia; 6.78 µM in the test with NCI-H226 lung. The TGI came to 4.31 µM in the test on OVCAR-8 ovarian, 3.75 µM with SF-268 CNS, 3.06 µM with SF-539 CNS and 3.64 µM with SW-620 colon.
For the compound `COc1ccc(-c2nc3sccn3c2-c2ccnc(NCCNS(=O)(=O)c3ccc(C(F)(F)F)cc3)n2)cc1`, the GI50 is 0.707 µM with BT-549 breast; 2.64 µM in the test on CAKI-1 renal; 1.53 µM with DU-145 prostate; 2.45 µM with HT29 colon; 0.503 µM with MOLT-4 leukemia; 2.42 µM in the test with NCI-H226 lung. Moreover, the GI50 in the test on OVCAR-8 ovarian was 2.85 µM; in the test with SF-268 CNS, 1.41 µM; in the test with SF-539 CNS it was 2.55 µM; in the test with SW-620 colon, 4.24 µM. The TGI in the test on BT-549 breast was 5.94 µM; in the test with CAKI-1 renal, greater than 100 µM; in the test with DU-145 prostate, greater than 100 µM; in the test with HT29 colon, greater than 100 µM; in the test with MOLT-4 leukemia, greater than 100 µM; in the test with NCI-H226 lung, 10.3 µM. The TGI with OVCAR-8 ovarian was greater than 100 µM; with SF-268 CNS it was 50.9 µM; with SF-539 CNS, 7.77 µM; with SW-620 colon, 38.9 µM.
For the compound `COc1cc(-c2oc3c(OC)c(O)c(OC)c(O)c3c(=O)c2OC)cc(OC)c1OC`, the TGI in the test on BT-549 breast, with CAKI-1 renal, in the test with DU-145 prostate, in the test on HT29 colon, with MOLT-4 leukemia and with NCI-H226 lung was greater than 100 µM in each case. The TGI is greater than 100 µM with OVCAR-8 ovarian, 71.5 µM with SF-268 CNS, greater than 100 µM in the test with SF-539 CNS and greater than 100 µM with SW-620 colon.
In the case of `COc1ccc(N=Nc2ccc(O)c(=O)cc2)cc1`, the GI50 was 2.03 µM in the test on BT-549 breast; 3.77 µM in the test on CAKI-1 renal; 4.07 µM in the test with DU-145 prostate; 4.83 µM in the test with HT29 colon; 3.69 µM in the test on MOLT-4 leukemia; 3.73 µM in the test on NCI-H226 lung. For the same compound, the GI50 was 2.88 µM in the test on OVCAR-8 ovarian, 3.62 µM with SF-268 CNS, 3.16 µM with SF-539 CNS and 4.08 µM with SW-620 colon. The TGI in the test on BT-549 breast is 11.6 µM; in the test with CAKI-1 renal, greater than 100 µM; in the test with DU-145 prostate, greater than 100 µM; with HT29 colon it was 49.7 µM; with MOLT-4 leukemia it was greater than 100 µM; in the test on NCI-H226 lung, greater than 100 µM. Besides, the TGI was greater than 100 µM in the test with OVCAR-8 ovarian, greater than 100 µM in the test on SF-268 CNS, 11.5 µM in the test with SF-539 CNS and greater than 100 µM in the test with SW-620 colon.
In the case of `CCCCCCCCCN=C(N)c1ccc(N2CCN(c3ccc(C(N)=NCCCCCCCCC)cc3)CC2)cc1`, the GI50 is 1.13 µM with BT-549 breast; 1.86 µM in the test with CAKI-1 renal; 2.35 µM in the test with DU-145 prostate; 1.3 µM in the test with HT29 colon; 1.58 µM with MOLT-4 leukemia; 3.77 µM in the test with NCI-H226 lung. The GI50 with OVCAR-8 ovarian is 1.62 µM; in the test with SF-268 CNS, 1.22 µM; in the test with SF-539 CNS, 2 µM; in the test with SW-620 colon it was 1.52 µM. Besides, the TGI in the test with BT-549 breast is 2.71 µM; in the test on CAKI-1 renal it was 8.42 µM; with DU-145 prostate it was 8.06 µM; in the test with HT29 colon, 7.4 µM; with MOLT-4 leukemia, greater than 50 µM; in the test on NCI-H226 lung it was greater than 50 µM. Besides, the TGI came out at 5.95 µM with OVCAR-8 ovarian, 4.04 µM with SF-268 CNS, 4.48 µM in the test with SF-539 CNS and 3.55 µM in the test on SW-620 colon.
With `O=C(/C=C(/C=C/c1cccc2[nH]ccc12)OB(F)F)/C=C/c1cccc2[nH]ccc12`, the GI50 with BT-549 breast is 1.03 µM; in the test with CAKI-1 renal, 0.876 µM; with DU-145 prostate it was 0.753 µM; in the test on HT29 colon, 0.516 µM; in the test with MOLT-4 leukemia, 0.385 µM; in the test with NCI-H226 lung, 1.87 µM. Besides, the GI50 with OVCAR-8 ovarian was 0.347 µM; in the test with SF-268 CNS, 1.13 µM; in the test on SF-539 CNS, 2.16 µM; in the test with SW-620 colon, 0.393 µM. Further, the TGI was 4.09 µM in the test on BT-549 breast; 3.13 µM in the test on CAKI-1 renal; 2.07 µM with DU-145 prostate; 3.92 µM in the test on HT29 colon; 3.72 µM in the test with MOLT-4 leukemia; 5.59 µM with NCI-H226 lung. Besides, the TGI with OVCAR-8 ovarian was greater than 100 µM; with SF-268 CNS it was 3.98 µM; with SF-539 CNS it was 5.86 µM; with SW-620 colon, 1.58 µM.

For the origin of these results see PubChem BioAssay (NCI).
